Assays:
[1] = biological target: T1, 5-hydroxytryptamine receptor 3A (Homo sapiens) (UniProt P46098); assay: Displacement of [3H]GR65630 from human 5-HT3 receptor expressed in HEK-T cell membranes at 10 uM incubated for 90 mins under dark condition by microbeta scintillation counting method relative to control
T1 sequence (whole entry): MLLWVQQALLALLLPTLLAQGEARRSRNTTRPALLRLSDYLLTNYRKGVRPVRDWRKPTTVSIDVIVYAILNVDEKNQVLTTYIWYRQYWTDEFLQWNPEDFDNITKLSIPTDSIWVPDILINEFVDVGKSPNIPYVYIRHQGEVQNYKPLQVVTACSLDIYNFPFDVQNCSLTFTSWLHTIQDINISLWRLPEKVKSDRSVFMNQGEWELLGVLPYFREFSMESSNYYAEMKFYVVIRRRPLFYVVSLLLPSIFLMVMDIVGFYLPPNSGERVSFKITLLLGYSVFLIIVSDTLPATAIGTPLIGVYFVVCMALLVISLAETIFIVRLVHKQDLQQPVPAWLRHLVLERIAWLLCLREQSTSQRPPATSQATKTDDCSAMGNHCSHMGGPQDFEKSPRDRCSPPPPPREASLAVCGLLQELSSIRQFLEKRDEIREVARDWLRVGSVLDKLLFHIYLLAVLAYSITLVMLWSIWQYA

[2] = biological target: 5-hydroxytryptamine receptor 1B (Homo sapiens) (UniProt P28222); assay: Displacement of [3H]5-CT from human 5-HT1BR expressed in HEK cell membranes at 10 uM incubated for 90 mins under dark condition by microbeta scintillation counting method relative to control; conditions: HEK293
[3] = biological target: T2, 5-hydroxytryptamine receptor 2C (Homo sapiens) (UniProt P28335); assay: Displacement of [3H]mesulergine from human 5-HT2CR expressed in Flp-In HEK cell membranes at 10 uM incubated for 90 mins under dark condition by microbeta scintillation counting method relative to control; conditions: HEK293
T2 sequence (whole entry): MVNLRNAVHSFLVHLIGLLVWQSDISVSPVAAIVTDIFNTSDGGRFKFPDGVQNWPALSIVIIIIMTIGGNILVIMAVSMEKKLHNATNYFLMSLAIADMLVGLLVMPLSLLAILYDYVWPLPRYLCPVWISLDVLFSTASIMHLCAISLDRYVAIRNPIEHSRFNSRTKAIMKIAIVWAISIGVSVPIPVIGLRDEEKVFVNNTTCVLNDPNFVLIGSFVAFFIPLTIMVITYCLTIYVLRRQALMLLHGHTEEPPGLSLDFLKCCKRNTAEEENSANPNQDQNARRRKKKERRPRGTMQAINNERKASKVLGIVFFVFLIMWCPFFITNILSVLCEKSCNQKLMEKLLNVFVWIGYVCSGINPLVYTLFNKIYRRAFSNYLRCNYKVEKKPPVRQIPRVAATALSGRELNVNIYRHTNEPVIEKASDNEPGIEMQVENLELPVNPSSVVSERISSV

[4] = biological target: 5-hydroxytryptamine receptor 4 (Homo sapiens) (UniProt Q13639); assay: Displacement of [3H]GR113808 from human 5-HT4 receptor at 10 uM incubated for 90 mins under dark condition by microbeta scintillation counting method relative to control
[5] = biological target: T3, 5-hydroxytryptamine receptor 1A (Homo sapiens) (UniProt P08908); assay: Displacement of [3H]WAY100635 from human 5-HT1AR expressed in CHO cell membranes at 10 uM incubated for 90 mins under dark condition by microbeta scintillation counting method relative to control
T3 sequence (whole entry): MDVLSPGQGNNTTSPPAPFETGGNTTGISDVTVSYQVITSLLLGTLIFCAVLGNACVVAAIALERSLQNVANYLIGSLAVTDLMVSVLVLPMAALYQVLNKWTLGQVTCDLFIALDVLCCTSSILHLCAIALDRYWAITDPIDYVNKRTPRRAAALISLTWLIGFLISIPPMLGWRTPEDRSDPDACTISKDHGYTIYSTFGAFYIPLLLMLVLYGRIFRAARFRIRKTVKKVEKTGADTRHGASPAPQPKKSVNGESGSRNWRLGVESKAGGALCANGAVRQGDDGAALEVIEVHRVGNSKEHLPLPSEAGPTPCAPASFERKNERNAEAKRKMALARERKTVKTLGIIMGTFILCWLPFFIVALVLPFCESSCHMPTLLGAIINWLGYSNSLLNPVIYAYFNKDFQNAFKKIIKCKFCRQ

Adenosine receptor A1 = biological target: T4, Adenosine receptor A1 (Homo sapiens, UniProt P30542); assay: Displacement of [3H]N6-phenylisopropyladenosine from recombinant human A1AR expressed in CHO cell membranes after 60 mins by liquid scintillation counting method
T4 sequence (P30542 whole entry): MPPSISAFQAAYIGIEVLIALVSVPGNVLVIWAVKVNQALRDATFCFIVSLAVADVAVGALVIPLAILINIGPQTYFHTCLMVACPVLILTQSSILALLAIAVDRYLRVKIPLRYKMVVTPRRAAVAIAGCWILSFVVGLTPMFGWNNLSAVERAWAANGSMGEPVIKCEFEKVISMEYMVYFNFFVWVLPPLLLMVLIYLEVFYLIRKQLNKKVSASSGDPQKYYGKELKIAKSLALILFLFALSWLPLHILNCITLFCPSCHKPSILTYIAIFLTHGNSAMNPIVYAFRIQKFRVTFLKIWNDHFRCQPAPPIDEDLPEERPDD

Adenosine receptor A3 = biological target: T5, Adenosine receptor A3 (Homo sapiens, UniProt P0DMS8); assay: Displacement of [125l]N 6-(4-amino-3-iodobenzyl)adenosine-5'-N-methyluronamide from recombinant human A3AR expressed in CHO cell membranes after 60 mins by gamma counting method
T5 sequence (P0DMS8 whole entry): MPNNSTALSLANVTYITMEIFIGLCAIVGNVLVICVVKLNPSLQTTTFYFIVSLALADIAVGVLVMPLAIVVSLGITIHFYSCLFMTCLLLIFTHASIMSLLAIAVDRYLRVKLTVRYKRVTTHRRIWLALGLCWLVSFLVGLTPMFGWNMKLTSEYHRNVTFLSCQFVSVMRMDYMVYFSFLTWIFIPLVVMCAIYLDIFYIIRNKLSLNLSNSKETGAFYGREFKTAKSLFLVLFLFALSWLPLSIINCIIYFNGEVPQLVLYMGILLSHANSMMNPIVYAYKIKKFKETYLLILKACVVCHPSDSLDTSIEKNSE

[6] = biological target: 5-hydroxytryptamine receptor 7 (Homo sapiens) (UniProt P34969); assay: Displacement of [3H]LSD from human 5-HT7A receptor expressed in HEK cell membranes at 10 uM incubated for 90 mins under dark condition by microbeta scintillation counting method relative to control; conditions: HEK293
[7] = biological target: 5-hydroxytryptamine receptor 5A (Homo sapiens) (UniProt P47898); assay: Displacement of [3H]LSD from human 5-HT5A receptor expressed in Flp-In-CHO cell membranes incubated for 90 mins under dark condition by microbeta scintillation counting method relative to control; design: concentration or dose not given beside the values
Adenosine receptor A2a = Adenosine receptor A2a (Homo sapiens, UniProt P29274); assay: Displacement of [3 H]2-[p-(2-carboxyethyl)phenyl-ethylamino]-5'-N-ethylcarboxamidoadenosine from recombinant human adenosine receptor A2A expressed in HEK293 cell membranes after 60 mins by liquid scintillation counting method
[8] = biological target: 5-hydroxytryptamine receptor 6 (Homo sapiens) (UniProt P50406); assay: Displacement of [3H]LSD from human 5-HT6 receptor expressed in HEK cell membranes at 10 uM incubated for 90 mins under dark condition by microbeta scintillation counting method relative to control; conditions: HEK293
[9] = biological target: T6, 5-hydroxytryptamine receptor 2A (Homo sapiens, UniProt P28223); assay: Displacement of [3H]ketanserin from human 5-HT2A receptor expressed in HEK-T cell membranes at 10 uM incubated for 90 mins under dark condition by microbeta scintillation counting method relative to control
[10] = biological target: 5-hydroxytryptamine receptor 1E (Homo sapiens) (UniProt P28566); assay: Displacement of [3H]5-HT from human 5-HT1E receptor expressed in HEK cell membranes at 10 uM incubated for 90 mins under dark condition by microbeta scintillation counting method relative to control; conditions: HEK293
[11] = biological target: 5-hydroxytryptamine receptor 1D (Homo sapiens) (UniProt P28221); assay: Displacement of [3H]5-CT from human 5-HT1D receptor expressed in HEK-T cell membranes at 10 uM incubated for 90 mins under dark condition by microbeta scintillation counting method relative to control
[12] = biological target: T7, 5-hydroxytryptamine receptor 2C (Homo sapiens, UniProt P28335); assay: Displacement of [3H]mesulergine from human 5-HT2CR expressed in Flp-In HEK cell membranes incubated for 90 mins under dark condition by microbeta scintillation counting method; design: species or system HEK293
T7 sequence (P28335 whole entry): T2 sequence (whole entry)

[13] = biological target: T6, 5-hydroxytryptamine receptor 2A; assay: Displacement of [3H]ketanserin from human 5-HT2A receptor expressed in HEK-T cell membranes incubated for 90 mins under dark condition by microbeta scintillation counting method
[14] = biological target: 5-hydroxytryptamine receptor 2B (Homo sapiens, UniProt P41595); conditions: HEK293, at 10 µM
[15] = Displacement of [3H]DTG from sigma2 receptor in rat PC12 cells after 90 mins by microbeta scintillation counting method; type: cell-based; conditions: pc-12
[16] = biological target: T8, Adenosine receptor A3 (Mus musculus) (UniProt Q61618); assay: Agonist activity at recombinant mouse A3AR expressed in HEK293 cells assessed as inhibition of forskolin-stimulated cAMP accumulation at 10 uM after 15 mins relative to adenosine-5'-N-ethyluronamide; type: functional, cell-based
T8 sequence (whole entry): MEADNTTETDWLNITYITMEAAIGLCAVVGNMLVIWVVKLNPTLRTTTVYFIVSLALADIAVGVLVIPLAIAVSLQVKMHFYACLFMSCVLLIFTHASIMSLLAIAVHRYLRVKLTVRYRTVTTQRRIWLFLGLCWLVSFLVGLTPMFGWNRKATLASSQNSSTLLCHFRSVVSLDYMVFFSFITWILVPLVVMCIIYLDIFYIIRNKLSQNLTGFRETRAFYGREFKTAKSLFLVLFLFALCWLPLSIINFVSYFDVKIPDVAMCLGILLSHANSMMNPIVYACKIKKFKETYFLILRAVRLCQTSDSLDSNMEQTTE

Chain of Adenosine receptor A2a (P29274 whole entry): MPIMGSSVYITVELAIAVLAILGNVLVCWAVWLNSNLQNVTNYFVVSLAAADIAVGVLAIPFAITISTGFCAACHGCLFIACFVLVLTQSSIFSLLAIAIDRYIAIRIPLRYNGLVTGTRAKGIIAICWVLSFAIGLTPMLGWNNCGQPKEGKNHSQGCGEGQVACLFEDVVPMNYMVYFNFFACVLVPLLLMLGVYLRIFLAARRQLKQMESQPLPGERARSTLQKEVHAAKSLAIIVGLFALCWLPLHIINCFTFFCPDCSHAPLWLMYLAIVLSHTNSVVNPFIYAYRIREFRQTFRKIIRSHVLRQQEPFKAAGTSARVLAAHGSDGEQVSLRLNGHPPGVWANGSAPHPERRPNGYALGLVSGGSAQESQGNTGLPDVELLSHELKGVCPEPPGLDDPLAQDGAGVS
Chain of 5-hydroxytryptamine receptor 6 (Homo sapiens) (P50406 whole entry): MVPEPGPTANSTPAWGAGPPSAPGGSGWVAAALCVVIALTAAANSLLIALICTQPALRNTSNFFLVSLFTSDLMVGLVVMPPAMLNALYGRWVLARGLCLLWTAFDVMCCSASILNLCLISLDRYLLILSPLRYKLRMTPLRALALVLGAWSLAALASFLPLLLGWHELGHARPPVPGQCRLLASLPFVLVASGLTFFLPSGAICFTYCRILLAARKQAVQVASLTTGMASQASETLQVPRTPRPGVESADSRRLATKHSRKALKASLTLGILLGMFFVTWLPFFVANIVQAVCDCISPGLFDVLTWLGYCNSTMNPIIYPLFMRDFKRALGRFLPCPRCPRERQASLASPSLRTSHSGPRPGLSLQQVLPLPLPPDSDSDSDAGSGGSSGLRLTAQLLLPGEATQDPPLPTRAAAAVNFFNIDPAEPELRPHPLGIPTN
Chain of 5-hydroxytryptamine receptor 7 (Homo sapiens) (P34969 whole entry): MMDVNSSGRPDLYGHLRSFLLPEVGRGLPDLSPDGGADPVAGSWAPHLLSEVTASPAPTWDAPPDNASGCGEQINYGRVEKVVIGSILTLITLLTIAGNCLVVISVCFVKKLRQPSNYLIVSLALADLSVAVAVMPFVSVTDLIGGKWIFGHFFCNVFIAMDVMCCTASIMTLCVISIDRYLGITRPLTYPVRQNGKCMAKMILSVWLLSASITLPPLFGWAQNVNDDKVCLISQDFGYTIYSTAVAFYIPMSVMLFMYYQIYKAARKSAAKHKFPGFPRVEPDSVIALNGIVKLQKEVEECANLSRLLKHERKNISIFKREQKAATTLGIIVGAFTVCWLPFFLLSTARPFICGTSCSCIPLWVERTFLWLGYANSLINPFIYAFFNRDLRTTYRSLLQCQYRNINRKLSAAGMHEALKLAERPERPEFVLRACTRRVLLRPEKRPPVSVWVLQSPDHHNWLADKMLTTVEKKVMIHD
Chain of 5-hydroxytryptamine receptor 1E (Homo sapiens) (P28566 whole entry): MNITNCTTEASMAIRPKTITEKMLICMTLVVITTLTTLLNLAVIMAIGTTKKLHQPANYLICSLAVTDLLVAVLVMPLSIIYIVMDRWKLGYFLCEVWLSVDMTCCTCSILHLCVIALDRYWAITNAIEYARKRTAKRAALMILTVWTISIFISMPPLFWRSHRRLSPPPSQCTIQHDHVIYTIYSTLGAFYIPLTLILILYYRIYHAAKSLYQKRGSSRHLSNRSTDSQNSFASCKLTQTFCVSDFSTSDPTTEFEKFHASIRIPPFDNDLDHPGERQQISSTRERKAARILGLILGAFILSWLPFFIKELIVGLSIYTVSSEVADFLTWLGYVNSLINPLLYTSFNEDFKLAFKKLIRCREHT
T6 sequence (P28223 whole entry): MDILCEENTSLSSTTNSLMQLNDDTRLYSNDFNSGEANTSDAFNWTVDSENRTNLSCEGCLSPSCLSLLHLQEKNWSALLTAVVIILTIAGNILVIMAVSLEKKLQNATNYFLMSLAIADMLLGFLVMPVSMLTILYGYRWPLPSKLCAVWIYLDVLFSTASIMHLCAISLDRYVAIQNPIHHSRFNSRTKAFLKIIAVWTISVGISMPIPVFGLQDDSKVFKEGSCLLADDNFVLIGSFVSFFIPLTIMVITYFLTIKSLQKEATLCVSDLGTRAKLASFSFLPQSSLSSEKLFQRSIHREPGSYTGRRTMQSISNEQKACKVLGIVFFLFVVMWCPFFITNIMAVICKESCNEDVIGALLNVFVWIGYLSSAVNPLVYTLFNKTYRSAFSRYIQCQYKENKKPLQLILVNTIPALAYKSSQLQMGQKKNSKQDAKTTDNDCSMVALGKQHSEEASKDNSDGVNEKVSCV
Chain of 5-hydroxytryptamine receptor 1B (Homo sapiens) (P28222 whole entry): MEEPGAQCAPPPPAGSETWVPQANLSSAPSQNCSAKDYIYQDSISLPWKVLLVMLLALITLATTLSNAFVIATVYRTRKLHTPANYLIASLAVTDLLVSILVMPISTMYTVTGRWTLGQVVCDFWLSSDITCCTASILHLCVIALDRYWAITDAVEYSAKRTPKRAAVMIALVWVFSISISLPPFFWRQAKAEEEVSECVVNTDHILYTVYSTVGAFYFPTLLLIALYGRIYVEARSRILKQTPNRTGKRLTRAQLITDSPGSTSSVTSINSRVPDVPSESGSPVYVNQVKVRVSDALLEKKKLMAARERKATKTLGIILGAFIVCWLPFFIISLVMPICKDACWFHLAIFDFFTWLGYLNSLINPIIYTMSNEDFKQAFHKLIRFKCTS
Chain of 5-hydroxytryptamine receptor 5A (Homo sapiens) (P47898 whole entry): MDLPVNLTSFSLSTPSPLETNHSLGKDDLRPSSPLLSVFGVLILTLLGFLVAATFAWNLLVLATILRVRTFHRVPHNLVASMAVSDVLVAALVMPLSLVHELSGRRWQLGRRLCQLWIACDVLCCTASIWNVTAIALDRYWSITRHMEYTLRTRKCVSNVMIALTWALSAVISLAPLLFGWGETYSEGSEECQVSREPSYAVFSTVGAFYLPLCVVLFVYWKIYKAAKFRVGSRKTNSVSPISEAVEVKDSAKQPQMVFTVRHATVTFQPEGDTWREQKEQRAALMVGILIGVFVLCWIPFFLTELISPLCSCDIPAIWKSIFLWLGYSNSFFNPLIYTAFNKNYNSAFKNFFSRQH
Chain of 5-hydroxytryptamine receptor 4 (Homo sapiens) (Q13639 whole entry): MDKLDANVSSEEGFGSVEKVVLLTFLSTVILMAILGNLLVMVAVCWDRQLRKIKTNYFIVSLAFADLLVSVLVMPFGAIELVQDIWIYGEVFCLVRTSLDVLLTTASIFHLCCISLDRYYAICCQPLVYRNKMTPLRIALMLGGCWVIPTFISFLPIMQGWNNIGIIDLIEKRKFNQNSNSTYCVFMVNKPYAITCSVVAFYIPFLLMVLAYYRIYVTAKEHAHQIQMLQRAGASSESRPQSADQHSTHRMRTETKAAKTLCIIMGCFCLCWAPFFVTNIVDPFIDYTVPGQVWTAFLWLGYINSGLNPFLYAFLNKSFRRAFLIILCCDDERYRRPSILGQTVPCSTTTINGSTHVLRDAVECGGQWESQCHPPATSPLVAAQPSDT
Chain of 5-hydroxytryptamine receptor 1D (Homo sapiens) (P28221 whole entry): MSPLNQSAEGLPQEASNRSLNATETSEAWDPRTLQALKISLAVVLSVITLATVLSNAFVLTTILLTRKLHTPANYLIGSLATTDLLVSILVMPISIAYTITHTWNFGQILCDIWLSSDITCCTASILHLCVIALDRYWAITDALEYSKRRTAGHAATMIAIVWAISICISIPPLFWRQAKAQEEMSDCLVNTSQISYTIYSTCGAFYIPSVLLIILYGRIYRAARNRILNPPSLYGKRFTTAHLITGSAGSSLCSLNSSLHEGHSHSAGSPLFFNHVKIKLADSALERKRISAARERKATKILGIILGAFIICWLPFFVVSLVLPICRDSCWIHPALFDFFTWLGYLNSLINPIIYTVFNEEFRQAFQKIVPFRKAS
Chain of 5-hydroxytryptamine receptor 2B (P41595 whole entry): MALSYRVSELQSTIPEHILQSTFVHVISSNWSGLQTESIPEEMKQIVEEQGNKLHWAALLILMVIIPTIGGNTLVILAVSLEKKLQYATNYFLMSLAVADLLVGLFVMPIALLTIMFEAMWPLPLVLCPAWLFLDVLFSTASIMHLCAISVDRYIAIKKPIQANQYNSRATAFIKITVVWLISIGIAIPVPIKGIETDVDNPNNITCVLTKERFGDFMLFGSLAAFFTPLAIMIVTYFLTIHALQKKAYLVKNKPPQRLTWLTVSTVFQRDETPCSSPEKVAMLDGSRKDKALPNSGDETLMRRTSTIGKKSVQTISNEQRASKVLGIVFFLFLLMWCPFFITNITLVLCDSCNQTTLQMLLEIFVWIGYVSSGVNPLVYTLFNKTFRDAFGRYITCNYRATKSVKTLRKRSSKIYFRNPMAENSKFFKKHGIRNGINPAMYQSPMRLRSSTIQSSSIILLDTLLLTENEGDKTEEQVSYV

CCC(CC)Nc1nc(Cl)nc2c1ncn2[C@H]1[C@H](O)[C@H](O)[C@]2(CO)C[C@H]12
inhibition [1]: < 50%
inhibition [2]: < 50%
inhibition [3]: > 50%
inhibition [4]: < 50%
inhibition [5]: < 50%
Ki (Adenosine receptor A1): 112 nM
Ki (Adenosine receptor A3): 1200 nM
inhibition [6]: < 50%
inhibition [7]: < 50%
Ki (Adenosine receptor A2a): 1750 nM
inhibition [8]: < 50%
inhibition [9]: 12%
inhibition [10]: < 50%
inhibition [11]: < 50%
Ki [12]: 703 nM
Ki [13]: > 10000 nM

Nc1ncnc2c1ncn2[C@@H]1O[C@H](C(=O)NC2CC2)[C@@H](O)[C@H]1O
inhibition [1]: < 50%
inhibition [2]: < 50%
inhibition [3]: < 10%
inhibition [4]: < 50%
inhibition [5]: < 50%
inhibition [14]: < 10%
inhibition [6]: < 50%
inhibition [7]: < 50%
inhibition [8]: < 50%
inhibition [9]: < 10%
inhibition [10]: < 50%
inhibition [11]: < 50%
Ki [15]: 1400 nM
Ki [13]: > 10000 nM

OC[C@@]12C[C@@H]1[C@@H](n1cnc3c(N[C@H](C4CCC4)C4CC4)nc(Cl)nc31)[C@H](O)[C@@H]2O
inhibition [1]: < 50%
inhibition [2]: < 50%
inhibition [3]: > 50%
inhibition [4]: < 50%
inhibition [5]: < 50%
Ki (Adenosine receptor A1): 298 nM
inhibition [6]: < 50%
inhibition [7]: < 50%
Ki (Adenosine receptor A2a): 2690 nM
inhibition [8]: < 50%
inhibition [9]: < 10%
inhibition [10]: < 50%
inhibition [11]: < 50%
Ki [12]: 298 nM
Ki [13]: > 10000 nM

CC[C@H](Nc1nc(Cl)nc2c1ncn2[C@H]1[C@H](O)[C@H](O)[C@]2(CO)C[C@H]12)C1CC1
inhibition [1]: < 50%
inhibition [2]: < 50%
inhibition [3]: > 50%
inhibition [4]: < 50%
inhibition [5]: < 50%
Ki (Adenosine receptor A1): 117 nM
inhibition [6]: < 50%
inhibition [7]: < 50%
Ki (Adenosine receptor A2a): 2950 nM
inhibition [8]: < 50%
inhibition [9]: < 10%
inhibition [10]: < 50%
inhibition [11]: < 50%
Ki [12]: 251 nM
Ki [13]: > 10000 nM

CNc1nc(Cl)nc2c1ncn2[C@H]1[C@H](O)[C@H](O)[C@]2(CO)C[C@H]12
inhibition [1]: < 50%
inhibition [2]: < 50%
inhibition [3]: > 50%
inhibition [4]: < 50%
inhibition [5]: < 50%
inhibition [6]: < 50%
inhibition [7]: < 50%
inhibition [8]: < 50%
inhibition [9]: < 10%
inhibition [10]: < 50%
inhibition [11]: < 50%
Ki [15]: 2220 nM
Ki [13]: > 10000 nM

CC[C@@H](Nc1nc(Cl)nc2c1ncn2[C@H]1[C@H](O)[C@H](O)[C@]2(CO)C[C@H]12)C1CC1
inhibition [1]: < 50%
inhibition [2]: < 50%
inhibition [3]: > 50%
inhibition [4]: < 50%
inhibition [5]: < 50%
Ki (Adenosine receptor A1): 76 nM
inhibition [6]: < 50%
inhibition [7]: < 50%
Ki (Adenosine receptor A2a): 1880 nM
inhibition [8]: < 50%
inhibition [9]: < 10%
inhibition [10]: < 50%
inhibition [11]: < 50%
Ki [12]: 371 nM
Ki [13]: > 10000 nM

CCNC(=O)[C@H]1O[C@@H](n2cnc3c(N)ncnc32)[C@H](O)[C@@H]1O [NECA]
inhibition [1]: < 50%
inhibition [2]: < 50%
Imax [16]: 100%
inhibition [4]: < 50%
inhibition [5]: < 50%
inhibition [6]: < 50%
inhibition [7]: < 50%
inhibition [8]: < 50%
inhibition [10]: < 50%
inhibition [11]: < 50%
Ki [13]: > 10000 nM

OC[C@@]12C[C@@H]1[C@@H](n1cnc3c(N[C@@H](C4CCC4)C4CC4)nc(Cl)nc31)[C@H](O)[C@@H]2O
inhibition [1]: < 50%
inhibition [2]: < 50%
inhibition [3]: > 50%
inhibition [4]: < 50%
inhibition [5]: < 50%
Ki (Adenosine receptor A1): 144 nM
inhibition [6]: < 50%
inhibition [7]: < 50%
Ki (Adenosine receptor A2a): 3940 nM
inhibition [8]: < 50%
inhibition [9]: < 10%
inhibition [10]: < 50%
inhibition [11]: < 50%
Ki [12]: 270 nM
Ki [13]: > 10000 nM
